Results reported in US9296732B2, “Substituted benzamides and their uses” (The Board of Trustees of the Leland Stanford Junior …, priority 2012, dated 2016).

The compounds below were run on RCC4 (assay: XTT cell viability assay in RCC4 parental (VHL-deficient) cells). Conditions: Homo sapiens, 96 h, four days with drug, second TABLE 1 (Examples 39-55).
Format: cell-based
Protocol: (§1) RCC4 parental and RCC4 with VHL-reintroduced (RCC4/VHL), SN12C and SN12C-CSCG-VHL shRNA were maintained in DMEM supplemented with 10% FCS.
(§2) For 2,3-bis[2-methoxy-4-nitro-5-sulfophenyl]-2H-tetrazolium-5-carboxanilide (XTT) assays, five thousand cells were plated in 96-well plates. The next day, vehicle (DMSO) or drug was added by serial dilution. Four days later, media were aspirated, XTT solution (0.3 mg/ml of XTT (Sigma), 2.65 mg/ml N-methyl dibenxopyrazine methyl sulfate (Simga) in phenol red-free media) was added, and the plates were incubated at 37° C. for 1-2 hours. Metabolism of XTT was quantified by measuring the absorbance at 450 nm. IC50s were calculated using linear interpolation. For clonogenic survival assays, three hundred cells were plated per 60 mm tissue culture dish. The cells were allowed to attach overnight and then treated with vehicle or drug for 14 days. Colonies were fixed and stained with crystal violet (0.1% crystal violet in 95% ethanol). All conditions were measured in triplicate and each experiment was done in duplicate or triplicate. To determine necrosis, cells were treated with drug for a given time point. Media and cells were collected, centrifugated, and resuspended in 0.4% trypan blue (Invitrogen). Live and dead cells were counted on a hematocytometer.
(§3) The designation A reflects an IC50 of <1 nM; B reflects an IC50 ranging from 1 to 20 nM; and C is an IC50 of >20 nM. The designation “a” reflects a ratio of RCC4/RCC-VHL+ ranging from 1 to ≦10; “b” reflects from 10 to ≦100; “c” reflects a ratio of >100. Compounds 1-29 have an IC50 value of ≦10 μM when tested in the above assay.

Row | Compound | IC50 [nM]
1 | Cc1oc(-c2ccc(C(=O)NCc3cccnc3)cc2)nc1CS(=O)(=O)[C@H]1CC[C@H](N2CCCCC2)C1 [Example 49] | < 1
2 | Cc1oc(-c2ccc(C(=O)NCc3cccnc3)cc2)nc1CS(=O)(=O)C1CCN(C2CCCCC2)CC1 [Example 55] | < 1

Same assay, conditions: four days with drug, second TABLE 1 (Examples 39-55)

Row | Compound | IC50 [nM]
3 | Cc1oc(-c2ccc(C(=O)NCc3cccnc3)cc2)nc1CS(=O)(=O)[C@H]1CC[C@@H](N)CC1 [Example 41, 4-(4-(((1s,4s)-4-aminocyclohexylsulfonyl)methyl)-5-methyloxazol-2-yl)-N-(pyridin-3-ylmethyl)benzamide] | > 20

These compounds were tested on RCC4/VHL (assay: XTT cell viability assay, RCC4 with VHL-reintroduced (RCC4/VHL) versus RCC4, selectivity ratio). Conditions: first TABLE 1 (II series).
Format: cell-based
Protocol: as §1, §2, §3

Row | Compound | Ratio = IC50RCC4/VHL/IC50RCC4
4 | O=C(Nc1cccnc1)c1ccc(CNS(=O)(=O)c2cccnc2)cc1 [II-1, N-(3-Pyridinyl)-4-{[(3-pyridylsulfonyl)amino]methyl}benzamide] | a (a ratio of RCC4/RCC-VHL+ ranging from 1 to ≦10)
5 | O=C(Nc1cccnc1)c1ccc(CNS(=O)(=O)c2ccc(Oc3ccccc3)nc2)cc1 [II-3, 4-({[(6-Phenoxy-3-pyridinyl)sulfonyl]amino}methyl)-N-(3-pyridinyl)benzamide] | a (a ratio of RCC4/RCC-VHL+ ranging from 1 to ≦10)
6 | O=C(Nc1cccnc1)c1ccc(CNS(=O)(=O)c2cccs2)cc1 [II-4, N-(3-Pyridinyl)-4-{[(2-thienylsulfonyl)amino]methyl}benzamide] | a (a ratio of RCC4/RCC-VHL+ ranging from 1 to ≦10)
7 | O=C(Nc1cccnc1)c1ccc(CNS(=O)(=O)c2ccsc2)cc1 [II-5, N-(3-Pyridinyl)-4-{[(3-thienylsulfonyl)amino]methyl}benzamide] | a (a ratio of RCC4/RCC-VHL+ ranging from 1 to ≦10)
8 | O=C(Nc1cccnc1)c1ccc(CNS(=O)(=O)c2ccco2)cc1 [II-8, N-(3-Pyridinyl)-4-{[(2-furanylsulfonyl)amino]methyl}benzamide] | a (a ratio of RCC4/RCC-VHL+ ranging from 1 to ≦10)

Same assay, conditions: second TABLE 1 (Examples 39-55)

Row | Compound | Ratio (IC50 RCC4 Proficient VHL)/IC50 RCC4 Deficient VHL)
9 | Cc1oc(-c2ccc(C(=O)NCc3cccnc3)cc2)nc1CS(=O)(=O)[C@H]1CC[C@@H](N)CC1 [Example 41, 4-(4-(((1s,4s)-4-aminocyclohexylsulfonyl)methyl)-5-methyloxazol-2-yl)-N-(pyridin-3-ylmethyl)benzamide] | b (from 10 to ≦100)
10 | Cc1oc(-c2ccc(C(=O)NCc3cccnc3)cc2)nc1CS(=O)(=O)[C@H]1CC[C@H](N)CC1 [Example 44, 4-(4-[[(4-Aminocyclohexane)sulfonyl]methyl]-5-methyl-1,3-oxazol-2-yl)-N-(pyridin-3-ylmethyl)benzamide] | b (from 10 to ≦100)
11 | Cc1oc(-c2ccc(C(=O)NCc3cccnc3)cc2)nc1CS(=O)(=O)[C@H]1CC[C@H](N2CCCC2)CC1 [Example 45] | b (from 10 to ≦100)
12 | Cc1oc(-c2ccc(C(=O)NCc3cccnc3)cc2)nc1CS(=O)(=O)[C@H]1CC[C@H](N2CCCCC2)CC1 [Example 46] | b (from 10 to ≦100)
13 | Cc1oc(-c2ccc(C(=O)NCc3cccnc3)cc2)nc1CS(=O)(=O)[C@H]1CC[C@H](N)C1 [Example 47] | b (from 10 to ≦100)
14 | Cc1oc(-c2ccc(C(=O)NCc3cccnc3)cc2)nc1CS(=O)(=O)[C@H]1CC[C@H](N2CCCC2)C1 [Example 48] | b (from 10 to ≦100)
15 | Cc1oc(-c2ccc(C(=O)NCc3cccnc3)cc2)nc1CS(=O)(=O)[C@H]1CC[C@H](N2CCCCC2)C1 [Example 49] | b (from 10 to ≦100)
16 | Cc1oc(-c2ccc(C(=O)NCc3cccnc3)cc2)nc1CS(=O)(=O)[C@@H]1CC[C@H](N)C1 [Example 50] | b (from 10 to ≦100)
17 | Cc1oc(-c2ccc(C(=O)NCc3cccnc3)cc2)nc1CS(=O)(=O)[C@@H]1CC[C@H](N2CCCC2)C1 [Example 51] | b (from 10 to ≦100)
18 | Cc1oc(-c2ccc(C(=O)NCc3cccnc3)cc2)nc1CS(=O)(=O)[C@@H]1CC[C@H](N2CCCCC2)C1 [Example 52] | a (a ratio of RCC4/RCC-VHL+ ranging from 1 to ≦10)
19 | Cc1oc(-c2ccc(C(=O)NCc3cccnc3)cc2)nc1CS(=O)(=O)C1CCN(CC(C)C)CC1 [Example 53, 4-(5-methyl-4-[[1-(2-methylpropyl)piperidine-4-sulfonyl]methyl]-1,3-oxazol-2-yl)-N-(pyridin-3-ylmethyl)benzamide] | a (a ratio of RCC4/RCC-VHL+ ranging from 1 to ≦10)
20 | Cc1oc(-c2ccc(C(=O)NCc3cccnc3)cc2)nc1CS(=O)(=O)C1CCN(C2CCCC2)CC1 [Example 54] | b (from 10 to ≦100)
21 | Cc1oc(-c2ccc(C(=O)NCc3cccnc3)cc2)nc1CS(=O)(=O)C1CCN(C2CCCCC2)CC1 [Example 55] | a (a ratio of RCC4/RCC-VHL+ ranging from 1 to ≦10)
